Assay results from ChEMBL document CHEMBL1156829 (Proc Natl Acad Sci U S A, 2008).

What was measured:
[1] = test system: Plasmodium falciparum; assay: NOVARTIS: Inhibition of Plasmodium falciparum 3D7 (drug-susceptible) proliferation in erythrocyte-based infection assay; format: functional, organism-based; settings: Plasmodium falciparum, 3D7
[2] = test system: Plasmodium falciparum; assay: NOVARTIS: Inhibition of Plasmodium falciparum W2 (drug-resistant) proliferation in erythrocyte-based infection assay; format: functional, organism-based; settings: Plasmodium falciparum, W2; read-out: EC50
[3] = NOVARTIS: Cytotoxicity against human hepatocellular carcinoma cell line (Huh7); format: toxicity, cell-based, Huh-7; settings: Huh7 cells (hepatocellular carcinoma cell line)

SMILES	EC50 [1] [µM]	EC50 [2] [µM]	CC50 [3] [µM]
O=C(C1CCC(Cn2c(=S)[nH]c3ccccc3c2=O)CC1)N1CC=C(c2ccccc2)CC1 (configuration not stated)	> 0.964	1.21	> 10
CO[C@H]1C[C@H](C)Cc2cc(O)cc(c2)NC(=O)C(C)=CCC[C@H](OC)[C@@H](OC(N)=O)C(C)=CC(C)[C@H]1O (some centres not stated)	> 1.25	0.0267	> 10
CN(CCCNc1ccnc2cc(Cl)ccc12)C(=O)c1cc(Cl)cc(Cl)c1	0.235	0.46	> 10
Fc1ccc2[nH]c3c(N4CCN(C(c5ccccc5)c5ccccc5)CC4)ncnc3c2c1	0.438	0.378	14.8
Cc1cccc(C)c1NC(=O)CN1C(=O)C(C)(C)Oc2ccc(C(=O)NC(C)(C)C)cc21	> 9.24	2.07	> 100
CCc1cc2c3c(c1)C1(C(=O)N3C(C)(C)CC2C)C(C#N)=C(N)Oc2cc(C)oc(=O)c21 (configuration not stated)	1.47	0.228	> 100
CC(Cc1ccccc1)NCc1ccccc1O (configuration not stated)	0.525	< 0.00493	> 10
Cc1cccc(NC(c2ccccc2F)c2ccc3cccnc3c2O)n1 (configuration not stated)	2.94	0.331	> 61.8
CCc1ccc(NC(=O)CSc2nc(C)cc(C)c2C#N)cc1	> 1.25	> 0.694	> 10
COc1ccc2cc(CNC3CCN(Cc4ccccc4)CC3)c(=O)[nH]c2c1	0.671	0.856	> 65.9
CSCCC(C(=O)NCC(=O)O)N1C(=O)c2cc(NC(C)=O)ccc2NC(=O)[C@@H]1c1ccccc1 (some centres not stated)	> 1.25	0.0153	> 7.76
CCCCN(CC(=O)N1c2ccccc2-n2cccc2C1c1ccc(OC)cc1)C(=O)Nc1cccc(F)c1 (configuration not stated)	8.6	6.25	> 100
CCOc1ccc(C=C(C#N)c2nc3ccccc3[nH]2)cc1OC	0.516	0.263	> 100
NNC(=O)C1CCCN1S(=O)(=O)c1ccc(Cl)cc1 (configuration not stated)	0.564	0.547	> 10
O=[N+]([O-])c1ccc(N2CCN(C(=S)Nc3ccccc3)CC2)cc1	6.01	1.64	> 100
Cc1cccc(NC(c2cccc(Cl)c2)c2ccc3cccnc3c2O)n1 (configuration not stated)	0.917	0.891	> 62.4
Cc1ccc(NC(=O)C2CC3c4ccccc4C2c2ccccc23)cc1 (configuration not stated)	> 12.5	2.55	> 100

SMILES	EC50 [1] [µM]	EC50 [2] [µM]	CC50 [3] [µM]
NN1C(=O)NC(=O)C1Nc1cccc([N+](=O)[O-])c1 (configuration not stated)	0.976	0.139	> 12.7
COCCNC(=O)c1ccc2c(=O)n(Cc3ccc4c(c3)OCO4)c(=S)[nH]c2c1	> 0.533	0.943	> 10
C=CCSc1nnc2c(n1)[nH]c1ccc(OCC)cc12	5.62	0.549	> 100
CCN(CC)c1ccc(/C=C(/C#N)c2nc3ccccc3[nH]2)o1	> 1.25	> 0.702	> 0.333
O=C(CNC(=O)c1ccccc1)Oc1ccc(Cl)cc1	0.537	> 1.25	> 10
Cc1cc(C)c2nc(SCC(=O)Nc3ccc4c(c3)OCCO4)cc(C)c2c1	> 1.25	> 0.942	> 10
COc1ccc(-c2cn3c([n+]2-c2ccccc2)SCC3)cc1	0.582	0.709	> 100
COc1ccc(-c2csc3ncn(N)c(=O)c23)cc1	> 1.25	> 1.01	> 10
CCc1c(C#N)c(N)nc2sc(C(=O)c3ccc(Br)cc3)c(N)c12	5.46	> 12.5	> 100
CN(C)c1cccc(Nc2cc(-c3ccc(CC(N)C(=O)O)cc3)nc3ccnn23)c1 (configuration not stated)	0.6	0.594	> 10
COc1ccc(CCNC2(Cc3ccccc3)CC(C)N(C)CC2C)cc1OC (configuration not stated)	0.62	0.268	42.7
CCN(CC)c1scc(-c2ccc(Cl)cc2)[s+]1	0.303	0.725	25.4
CC(=O)OC(OC(C)=O)C12C=CC(O1)C1C(=O)N(c3cccc(C)c3)C(=O)C12 (configuration not stated)	> 0.794	> 1.25	> 10
O=C(Nc1cc(Cl)cc(Cl)c1)Nc1ccccc1C(=O)NCC1CC1	> 1.18	< 0.0124	> 10
Cc1ccc2c(c1)C(C)(c1ccc(Cl)cc1)CC(C)(C)N2C(=O)COc1ccc2ccccc2c1 (configuration not stated)	> 12.5	0.124	> 100
Cc1cc(N2CCN(Cc3ccccc3)CC2)n2c(nc3ccccc32)c1C#N	0.323	0.832	> 100
COC(=O)[C@@H]1C[C@H](NC(=O)c2ccc(OC)cc2OC)CN1Cc1cccc2ccccc12	> 1.25	> 0.0809	> 10
